Measured values from paper PMC6668378, “Maturation of coagulation factor IX during Xase formation as deduced using factor VIII‐derived peptides” (FEBS Open Bio, 2019).
Where two headings read alike, the source gives them in different places. Square brackets hold non-standard residues; d marks the D form. Ends that are not written are not given here. Peptide text beside a SMILES is read from it. sY = N[C@@H](Cc1ccc(OS(=O)(=O)O)cc1)C(=O)O

What was measured:
[1] = target: T1, FIX wt (Homo sapiens, UniProt P00740); assay: SAM5 binding of zymogenic FIX wt to immobilized FVIIIa-derived peptide; conditions: no additive; peptide immobilized on carboxymethyl-dextran chip, FIX wt 10-250 nM in mobile phase, 40 μL/min, 4 min association, 4 min dissociation, one-to-one two-state model; 20 mM HEPES pH 7.5, 150 mM NaCl, 5 mM CaCl2
T1 construct: made in house; host or cells: Escherichia coli
Experimental: (§1) Factor IX protein variants were expressed in Escherichia coli, refolded, purified and activated as described elsewhere 8, 9, 10.
(§2) The factor VIII‐derived peptides Ser558‐Gln565 (SVDQRGNQ) and Lys713‐Arg740 (KHTGDsYsYEDSsYEDISAYLLSKNNAIEPR; sY: sulfotyrosine) were purchased from JPT Peptide Technologies. Quality was controlled by HPLC and mass spectrometry and confirmed to be of better than 90% homogeneity.
(§3) Prior to the chip calibration at 22 °C, the instrument was flushed with a flow rate of 40 μL·min^−1 for 5 to 10 min. Chip calibration was performed using the SAM5 program with gain of 180 and a phase difference of 0.363.
(§4) The SAM5 instrument with a dextran‐COOH‐coated gold chip (NanoTemper Technologies) was equilibrated using filtered and degassed PBS running buffer, and the chip was calibrated as described above. 1‐ethyl‐3‐(3‐dimethylaminopropyl) carbodiimide (EDC) and N‐hydroxysuccinimide (NHS) were dissolved in ddH2O to a final concentration of 400 mM and 100 mM, respectively. To activate the chip, EDC and NHS were mixed at equal volume, resulting in the final concentrations of 200 mM EDC and 50 mM NHS. […]
(§5) Firstly, pumps were washed using filtered and degassed running buffer (20 mM HEPES pH 7.5, 150 mM NaCl, 5 mM CaCl2). […] The sensogram SAM5 data were exported to Origin and TraceDrawer, allowing to analyse and quantify the protein binding affinities, as described in the SAM5 user manual. […]

[2] = target: T2, FIXa wt (Homo sapiens, UniProt P00740); assay: SAM5 binding of activated FIXa wt to immobilized FVIIIa-derived peptide; conditions: no additive, FIXa wt as analyte 10-250 nM, pH 7.5, 5 mM CaCl2
T2 construct: made in house; host or cells: Escherichia coli
Experimental: as §1, §2, §3, §4
(§6) Firstly, pumps were washed using filtered and degassed running buffer (20 mM HEPES pH 7.5, 150 mM NaCl, 5 mM CaCl2). […] The sensogram SAM5 data were exported to Origin and TraceDrawer, allowing to analyse and quantify the protein binding affinities, as described in the SAM5 user manual.

[3] = target: T3, FIX‐R170L (Homo sapiens, UniProt P00740, R384L); assay: SAM5 binding of zymogenic FIX-R170L (Padua) to immobilized FVIIIa-derived peptide; conditions: no additive, FIX-R170L as analyte 10-250 nM, pH 7.5, 5 mM CaCl2
T3 construct: made in house; host or cells: Escherichia coli
Experimental: as §1, §2, §3, §4, §6

[4] = target: T4, FIXa R170L (Homo sapiens, UniProt P00740, R384L); assay: SAM5 binding of activated FIXa R170L (Padua) to immobilized FVIIIa-derived peptide; conditions: no additive, FIXa R170L as analyte 10-250 nM, pH 7.5, 5 mM CaCl2
T4 construct: made in house; host or cells: Escherichia coli
Experimental: as §1, §2, §3, §4, §6

[5] = tested on: activation peptide of factor IX and factor X; conditions: cited from earlier work; for affinity towards activation peptide binding site relative to active site: factor IX and factor X
From the text: In the protease factors IX and X, proteolytic activation at Arg180 (FX: Arg194) and Arg145 releases an activation peptide, triggering a conformational disorder‐to‐order transition in the serine protease domain (Figs 2 and S1). The activation peptide is positioned between the light chain (consisting of the N‐terminal Gla, EGF1 and EGF2 domains) and the trypsin‐like serine protease domain. Light and heavy chains remain covalently linked via a disulfide bond. In both factor IX and factor X, the activation peptide harbours an intriguing high‐affinity binding site for benzamidine/arginine, exceedin ...

[6] = tested on: coagulation factor VIII (nonactivated FVIII); assay: Surface acoustic wave (SAM5) binding of FIX(a) variants to immobilized factor VIII
Experimental: as §3
as §4, with “NHS. The mixture was rapidly placed into position A1 of the tray holder. If carried out properly, the baseline will increase. Subsequently, the ligand (protein ligands at 250–500 nM concentration, peptidic ligands at 100 μM to 1 mM concentration) was placed into the tray holder at position A1. The binding of the ligand to the dextran matrix is based on electrostatic interactions.” for “NHS.”
as §5

[7] = target: activated factor VIIIa (FVIIIa); assay: Surface acoustic wave (SAM5) binding of FIX(a) variants to immobilized activated factor VIIIa; conditions: for Kd: FVIIIa immobilized on dextran chip, SAM5 Blue surface acoustic wave, analyte 10-250 nM, 40 μL/min, 20 mM HEPES pH 7.5, 150 mM NaCl, 5 mM CaCl2, read-out: Kd, interaction with activated factor VIIIa
Experimental: pro‐FVIII was generously provided by Baxter Biosciences (Vienna, Austria). Human thrombin was purchased from Sigma. For activation, 100 μg FVIII lyophilisate was dissolved in ddH2O and spin‐dialysed by repeated concentration in 30 kDa cut‐off Amicon concentrators to a final concentration of ~ 0.2 mg·mL^−1. FVIII was activated by thrombin similar to protocols described elsewhere 11, 12. Briefly, thrombin was dissolved in 20 mM Hepes, pH 7.5, 100 mM NaCl and 5 mM CaCl2. 1 unit of thrombin was added to 1000 units of FVIII (100 μg) and incubated for 15 min at 37 °C without shaking. The protein mixture was then dialysed by in total four centrifugation steps against a 4 °C cold wash buffer consisting of 50 mM Hepes, pH 7.4, 300 mM NaCl and 2.5 mM CaCl2. The reaction was stopped after the second concentration step by adding 20 μL 50 mM PMSF to inhibit thrombin. The activation of FVIIIa was controlled by SDS/PAGE to observe the A1, A2 and A3‐C1‐C2 at ~55 kDa, 40 kDa and 70 kDa, respectively.
as §3
as §4, with “NHS. The mixture was rapidly placed into position A1 of the tray holder.” for “NHS.”
as §5

T1 sequence (P00740 29-461 limits assumed): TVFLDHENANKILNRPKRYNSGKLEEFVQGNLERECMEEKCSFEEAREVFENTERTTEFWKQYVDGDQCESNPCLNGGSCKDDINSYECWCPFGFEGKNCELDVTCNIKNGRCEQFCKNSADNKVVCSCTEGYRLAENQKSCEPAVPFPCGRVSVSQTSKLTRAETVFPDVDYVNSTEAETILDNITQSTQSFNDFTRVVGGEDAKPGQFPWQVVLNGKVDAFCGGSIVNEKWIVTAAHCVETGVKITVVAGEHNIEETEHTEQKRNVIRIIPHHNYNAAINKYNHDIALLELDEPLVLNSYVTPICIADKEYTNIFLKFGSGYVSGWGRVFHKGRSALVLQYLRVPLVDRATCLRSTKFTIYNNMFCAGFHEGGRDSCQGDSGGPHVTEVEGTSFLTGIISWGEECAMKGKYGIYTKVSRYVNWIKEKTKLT
T4 sequence (P00740 227-461 R384L): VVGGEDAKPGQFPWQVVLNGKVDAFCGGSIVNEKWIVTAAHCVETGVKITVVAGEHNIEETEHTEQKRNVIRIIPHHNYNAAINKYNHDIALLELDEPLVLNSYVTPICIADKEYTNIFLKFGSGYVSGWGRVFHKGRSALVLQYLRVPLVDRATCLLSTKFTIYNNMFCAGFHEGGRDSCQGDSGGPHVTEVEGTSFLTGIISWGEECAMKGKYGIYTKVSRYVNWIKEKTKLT
T4 sequence (P00740 47-191 partner limits assumed): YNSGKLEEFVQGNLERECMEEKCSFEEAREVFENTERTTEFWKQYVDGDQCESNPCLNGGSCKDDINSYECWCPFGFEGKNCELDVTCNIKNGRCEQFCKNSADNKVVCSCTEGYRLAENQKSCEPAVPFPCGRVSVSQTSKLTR
T2 sequence (P00740 227-461 limits assumed): as the sequence (P00740 227-461 R384L) above, with L158R counted along it
T2 sequence (P00740 47-191 partner limits assumed): as the sequence (P00740 47-191 partner limits assumed) above
T3 sequence (P00740 133-461 R384L limits assumed): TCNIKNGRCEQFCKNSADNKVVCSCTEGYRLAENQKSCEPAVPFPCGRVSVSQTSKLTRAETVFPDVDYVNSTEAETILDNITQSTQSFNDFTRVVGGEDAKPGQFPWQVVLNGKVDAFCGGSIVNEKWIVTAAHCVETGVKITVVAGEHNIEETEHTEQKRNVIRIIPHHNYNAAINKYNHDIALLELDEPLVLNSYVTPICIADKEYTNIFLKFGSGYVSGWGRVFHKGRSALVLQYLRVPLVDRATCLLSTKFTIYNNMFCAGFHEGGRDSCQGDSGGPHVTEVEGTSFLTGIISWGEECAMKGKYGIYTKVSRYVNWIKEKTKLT

Compound | Kd [1] [nM] | Kd [2] [nM] | Kd [3] [nM] | Kd [4] [nM] | affinity towards activation peptide binding site relative to active site [5] | other results
CC[C@H](C)[C@H](NC(=O)[C@H](C)NC(=O)[C@H](CC(N)=O)NC(=O)[C@H](CC(N)=O)NC(=O)[C@H](CCCCN)NC(=O)[C@H](CO)NC(=O)[C@H](CC(C)C)NC(=O)[C@H](CC(C)C)NC(=O)[C@H](Cc1ccc(O)cc1)NC(=O)[C@H](C)NC(=O)[C@H](CO)NC(=O)[C@@H](NC(=O)[C@H](CC(=O)O)NC(=O)[C@H](CCC(=O)O)NC(=O)[C@H](Cc1ccc(OS(=O)(=O)O)cc1)NC(=O)[C@H](CO)NC(=O)[C@H](CC(=O)O)NC(=O)[C@H](CCC(=O)O)NC(=O)[C@H](Cc1ccc(OS(=O)(=O)O)cc1)NC(=O)[C@H](Cc1ccc(OS(=O)(=O)O)cc1)NC(=O)[C@H](CC(=O)O)NC(=O)CNC(=O)[C@@H](NC(=O)[C@H](Cc1c[nH]cn1)NC(=O)[C@@H](N)CCCCN)[C@@H](C)O)[C@@H](C)CC)C(=O)N[C@@H](CCC(=O)O)C(=O)N1CCC[C@H]1C(=O)N[C@@H](CCCNC(=N)N)C(=O)O [a2 peptide, KHTGDsYsYEDSsYEDISAYLLSKNNAIEPR] (H-KHTGD[sY][sY]EDS[sY]EDISAYLLSKNNAIEPR-OH) | 65.8 ± 23.5 | 98.9 ± 11.6 | 52.8 ± 9.75 | 103 ± 16.6 |  | 
N=C(N)NCCC[C@H](N)C(=O)O [arginine] |  |  |  |  | exceeding the affinity towards the active site by an order of magnitude | 
N=C(N)c1ccccc1 [benzamidine] |  |  |  |  | exceeding the affinity towards the active site by an order of magnitude | 
FIX wt: recombinant zymogenic factor IX wild-type, expressed in Escherichia coli and refolded |  |  |  |  |  | affinity to cofactor VIII relative to activated FIXa wt ([6]; FIX wt versus FIXa wt): more than 10 fold; Kd ([6]; analyte incubated with 1 μM aprotinin (BPTI), FVIII immobilized on dextran chip, SAM5 Blue surface acoustic wave, analyte 10-250 nM, 40 μL/min, 20 mM HEPES pH 7.5, 150 mM NaCl, 5 mM CaCl2, read-out: Kd, interaction with nonactivated factor VIII): 65.8 ± 21.2 nM; Kd ([7]; analyte incubated with 1 μM aprotinin (BPTI)): 72.2 ± 60.2 nM; Kd ([7]; analyte incubated with 1 mM benzamidine): 83.6 ± 140 nM; higher affinity of zymogenic FIX wt than FIXa wt for activated factor VIIIa ([7]; in the presence of both benzamidine and BPTI): confirmed also when activated factor VIIIa was used as a binding partner
SVDQRGNQ [558‐loop, SVDQRGNQ] | 172 ± 37.6 | 457 ± 121 | 173 ± 57.1 | 374 ± 138 |  | 
basic pancreatic trypsin inhibitor [BPTI] |  |  |  |  |  | binding to activation peptide versus active site ([5]; factor IX/X, background statement, no reference given): do not bind to the activation peptide but to the active site exclusively
